Results: ChEMBL document CHEMBL5260799, “Pterocarpan scaffold: A natural lead molecule with diverse pharmacological properties” (Eur J Med Chem, 2017)
≈ marks a conversion by molar mass, not a printed value.

Assays:
BMDC = assay: Anti-inflammatory activity against LPS-induced C57BL/6 mouse BMDC cells assessed as inhibition of IL-12 production at 25 uM by ELISA method; assay type: functional; set-up: scale not given: the % may be the effect or the level left
MCF7 [1] = assay: Antiproliferative activity against human MCF7 cells assessed as inhibition of cell proliferation incubated for 72 hrs by MTT assay; assay type: functional, cell-based; conditions: MCF7, 72 h
Jurkat = assay: Antiproliferative activity against human Jurkat cells assessed as reduction in cell proliferation measured after 24 hrs by MTT assay; assay type: functional, cell-based
HL-60 [2] = assay: Antiproliferative activity against human HL-60 cells assessed as reduction in cell proliferation measured after 36 hrs by MTT assay; assay type: functional, cell-based; conditions: HL-60, 36 h
HL-60 [3] = assay: Antiproliferative activity against human HL-60 cells assessed as reduction in cell viability at 2.5 ug/ml by tryphan blue staining assay; assay type: functional; conditions: dose 2.5 µg/ml
K562 [4] = assay: Antiproliferative activity against human K562 cells assessed as reduction in cell proliferation measured after 36 hrs by MTT assay; assay type: functional, cell-based; conditions: K562, 36 h
HL-60 [5] = assay: Antiproliferative activity against human HL-60 cells assessed as reduction in cell viability at 1.25 ug/ml by tryphan blue staining assay; assay type: functional; conditions: dose 1.25 µg/ml
MOLT-4 = assay: Antiproliferative activity against human MOLT-4 cells assessed as reduction in cell proliferation measured after 24 hrs by MTT assay; assay type: functional, cell-based; conditions: MOLT-4, 24 h
[6] = Antiproliferative activity against human PBMC cells assessed as reduction in cell viability at 10 microg/ml measured after 72 hrs by MTT assay; assay type: toxicity, cell-based; conditions: at 10 µg/mL
MCF7 [7] = assay: Antiproliferative activity against human MCF7 cells assessed as growth inhibition measured after 48 hrs by CellTiter-Blue assay; assay type: functional, cell-based; conditions: MCF7, 48 h
CCRF-CEM = assay: Cytotoxicity against human CCRF-CEM cells assessed as reduction in cell viability incubated for 72 hrs by MTT assay; assay type: functional, cell-based
[8] = Inhibition of melanin in human melanocyte; assay type: functional, cell-based
Plasmodium falciparum [9] = assay: Antiplasmodial activity against Plasmodium falciparum K1 assessed as reduction in parasite growth by fluorescence based assay; assay type: functional, organism-based
Staphylococcus aureus [10] = assay: Antibacterial activity against methicillin-resitant Staphylococcus aureus N1 assessed as reduction in bacterial growth by microbroth dilution method; assay type: functional
[11] = test system: Mycobacterium tuberculosis; assay: Antimycobacterial activity against Mycobacterium tuberculosis H37Rv assessed as inhibition of bacterial growth by Microplate alamar blue assay; assay type: functional, organism-based
Staphylococcus aureus [12] = assay: Antibacterial activity against methicillin-resistant Staphylococcus aureus assessed as bacterial growth inhibition; assay type: functional, organism-based
RAW264.7 = assay: Antiinflammatory activity in mouse RAW264.7 cells assessed as inhibition of LPS-induced NO production at 50 uM measured after 24 hrs by Griess method; assay type: functional, cell-based; conditions: RAW264.7, 24 h
KB [13] = assay: Antiproliferative activity against human KB cells assessed as reduction in cell viability after 72 hrs by SRB assay; assay type: functional
Mus musculus = species on record: Mus musculus; assay: Reduction in hepatic steatosis in HFD-induced C57BL/6J mouse model assessed as reduction in serum LDL level […]; assay type: functional, organism-based
Plasmodium falciparum [14] = assay: Antiplasmodial activity against Plasmodium falciparum D6 assessed as reduction in plasmodial growth after 48 hrs by fluorescence based analysis; assay type: functional, organism-based; conditions: D6, 48 h
[15] = Cytotoxicity activity against human Lucena 1 cells assessed as reduction in cell viability […] measured after 72 hrs by MTT assay; assay type: functional, cell-based; conditions: Lucena 1, 72 h
K562 [16] = assay: Cytotoxicity activity against human K562 cells assessed as reduction in cell viability […] measured after 72 hrs by MTT assay; assay type: functional, cell-based; conditions: K562, 72 h
Neuraminidase = Neuraminidase (Influenza A virus, UniProt B4URF0); assay: Inhibition of Influenza A virus H5N1 neuraminidase
DLD-1 = assay: Cytotoxicity against human DLD-1 cells assessed as reduction in cell proliferation incubated for 24 hrs by MTT assay; assay type: functional, cell-based; conditions: DLD-1, 24 h
HeLa = assay: Cytotoxicity against human HeLa cells assessed as reduction in cell proliferation incubated for 24 hrs by MTT assay; assay type: functional, cell-based
A2780 = assay: Antiproliferative activity against human A2780 cells assessed as reduction in cell viability incubated for 96 hrs by MTT assay; assay type: functional, cell-based; conditions: A2780, 96 h
Streptococcus agalactiae = assay: Antibacterial activity against Streptococcus agalactiae ATCC 12386 assessed as reduction in bacterial growth by microbroth dilution method; assay type: functional
KB [17] = assay: Cytotoxicity against human KB cells assessed as reduction in cell viability by colorimetric assay; assay type: functional, cell-based
Breast carcinoma cell = assay: Cytotoxicity against human Breast carcinoma cell assessed as reduction in cell viability by colorimetric assay; assay type: functional, cell-based
Plasmodium falciparum [18] = assay: Antiplasmodial activity against Plasmodium falciparum W2 assessed as reduction in plasmodial growth after 48 hrs by fluorescence based analysis; assay type: functional, organism-based; conditions: W2, 48 h
A549 = assay: Cytotoxicity against human A549 cells assessed as reduction in cell viability by SRB assay; assay type: functional, cell-based

Sequence of Neuraminidase (B4URF0 whole entry): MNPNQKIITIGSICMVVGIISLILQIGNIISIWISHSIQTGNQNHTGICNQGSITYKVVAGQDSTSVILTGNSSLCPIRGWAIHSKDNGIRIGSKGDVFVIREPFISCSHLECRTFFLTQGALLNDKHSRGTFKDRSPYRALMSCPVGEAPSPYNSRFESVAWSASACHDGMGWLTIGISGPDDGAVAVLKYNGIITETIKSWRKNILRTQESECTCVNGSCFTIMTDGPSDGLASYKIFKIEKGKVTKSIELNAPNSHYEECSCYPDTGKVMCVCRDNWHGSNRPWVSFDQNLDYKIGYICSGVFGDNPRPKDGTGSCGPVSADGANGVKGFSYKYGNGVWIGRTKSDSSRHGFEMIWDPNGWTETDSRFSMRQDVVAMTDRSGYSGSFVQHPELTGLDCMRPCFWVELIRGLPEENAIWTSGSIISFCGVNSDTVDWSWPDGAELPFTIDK

COc1ccc2c(c1OC)OC1c3ccc(O)cc3OCC21 (stereo not drawn)
Activity (BMDC): 45%

O=C1c2ccccc2C(=O)C2C1OCC1c3cc(O)c(O)cc3OC12 (stereo not drawn)
IC50 (MCF7 [1]): 115 µM

COc1ccc2c(c1)O[C@@H]1c3cc(OC)c(OC)cc3OC[C@H]21
IC50 (Jurkat): > 10 µg/mL
IC50 (HL-60 [2]): 2.5 µg/mL (≈ 7.95 µM)
Activity (HL-60 [3]): 42.6%
IC50 (K562 [4]): 2.8 µg/mL (≈ 8.91 µM)
Activity (HL-60 [5]): 34.4%
IC50 (MOLT-4): 45.9 µg/mL (≈ 146 µM)
inhibition at 72 h, 10 microg/ml [6]: 19%
IC50 (MCF7 [7]): 8 µM

COc1cc2c(cc1OCc1ccccc1)C1COC3C(=O)c4ccccc4C(=O)C3C1O2 (stereo not drawn)
IC50 (MCF7 [1]): > 100 µM

CC(C)=CCc1cc2c(cc1O)OC1c3ccc(O)cc3OCC21 (stereo not drawn)
IC50 (CCRF-CEM): 3.73 µM

COc1ccc2c(c1)OCc1c-2oc2c3c(c(O)cc12)OC(C)(C)C=C3 [LESPEFLORIN H2]
IC50 [8]: 1.48 µM

COc1ccc2c(c1CC=C(C)C)O[C@H]1c3cc(CC=C(C)C)c(O)cc3OC[C@@]21O [ERYSTAGALLIN A]
IC50 (Plasmodium falciparum [9]): 3.8 µg/mL (≈ 8.99 µM)
MIC (Staphylococcus aureus [10]): 0.78 µg/mL (≈ 1.85 µM)
IC50 [11]: 12.5 µg/mL (≈ 29.6 µM)

COc1cc2c(cc1CC=C(C)C)[C@@H]1Oc3cc(O)ccc3[C@@H]1CO2
IC50 (Staphylococcus aureus [12]): 6.25 µg/mL (≈ 18.5 µM)

COc1ccc2c(c1OC)O[C@H]1c3ccc(O[C@H]4O[C@H](COC(C)=O)[C@@H](O)[C@H](O)[C@H]4O)cc3OC[C@@H]21
EC50 (RAW264.7): 28.7 µM

CC(C)=CC[C@]12COc3c(cc(O)c4c3C=CC(C)(C)O4)[C@H]1Oc1cc3c(cc12)OCO3
Activity (KB [13]): 56%

CC(C)(O)c1cc2cc3c(cc2o1)OC[C@@]1(O)c2ccc(O)cc2O[C@@H]31
IC50 (Mus musculus): 19.8 µM

COc1cc(Br)c2c(c1CC=C(C)C)O[C@H]1c3ccc(O)cc3OC[C@@H]21
IC50 (Plasmodium falciparum [14]): 12.9 µg/mL

C=C/C(C)=C/c1c(O)ccc2c1OC[C@H]1c3cc(C)c(O)c(CC=C(C)C)c3O[C@@H]21
IC50 [8]: 1.52 µM

CC(C)=CCc1cc2c(cc1O)OC[C@H]1c3c4c(c(O)c(CC=C(C)C)c3O[C@@H]21)OC(C)(C)CC4
IC50 [8]: 0.4 µM

O=C1C2=C(C(=O)c3ccccc31)[C@H]1Oc3cc(OCc4ccccc4)c(OCc4ccccc4)cc3[C@H]1CO2
IC50 [15]: 3.64 µM
IC50 (K562 [16]): 3.46 µM

O=c1oc2cc(O)ccc2c2oc3cc(O)ccc3c12 [COUMESTROL]
IC50 (Mus musculus): 0.9 µM
IC50 (Neuraminidase): 37.8 µM

O=C1c2ccccc2C(=O)C2C1OCC1c3cc4c(cc3OC12)OCO4 (stereo not drawn)
IC50 (MCF7 [1]): 29 µM

COc1cc2c(cc1O)[C@@H]1Oc3c(cc(OC)c(OC)c3O)[C@@H]1CO2 [BRANDISIANIN F]
IC50 (DLD-1): > 25 µM
IC50 (HeLa): > 25 µM

C=C(C)[C@H]1Cc2cc3c(cc2O1)OC[C@@H]1c2ccc(OC)c(O)c2O[C@H]31
IC50 (A2780): 23.2 µM

CC(C)=CCc1cc2c(cc1O)OC[C@H]1c3ccc(O)c(CC=C(C)C)c3O[C@@H]21 [ERYBRAEDIN C]
MIC (Streptococcus agalactiae): 0.78 µg/mL (≈ 1.99 µM)
IC50 (Plasmodium falciparum [9]): 5.5 µg/mL (≈ 14 µM)
IC50 (KB [17]): 5.1 µg/mL (≈ 13 µM)
IC50 (Breast carcinoma cell): 2.9 µg/mL (≈ 7.39 µM)
IC50 [11]: 50 µg/mL (≈ 127 µM)

CC1(C)C=Cc2cc3c(cc2O1)OCC1c2ccc(O)cc2OC31 (stereo not drawn)
IC50 (Plasmodium falciparum [14]): 19.4 µM
IC50 (Plasmodium falciparum [18]): 17 µM

O=C1c2ccccc2C(=O)C2C1OCC1c3cc(OCc4ccccc4)c(OCc4ccccc4)cc3OC12 (stereo not drawn)
IC50 (MCF7 [1]): > 100 µM

CC1(C)Oc2cc3c(cc2CC1O)[C@@H]1Oc2cc(O)ccc2[C@@H]1CO3 (stereo partly drawn) [RAUTANDIOL A]
IC50 (A549): > 5 µg/mL

COc1cc2c(cc1O)[C@H]1COC3=C(C(=O)c4ccccc4C3=O)[C@H]1O2
IC50 [15]: 2.57 µM

COc1cc2c(cc1O)O[C@@H]1C3=C(OC[C@H]21)C(=O)c1ccccc1C3=O
IC50 [15]: 4.49 µM
IC50 (K562 [16]): 4.5 µM
